US20250332151A1, “METHODS OF TREATMENT FOR CYSTIC FIBROSIS” (Vertex Pharmaceuticals Incorporated, priority 2022, published 2025)

Tests used:
[1] = biological target: T1, CFTR in F508del/MF-HBE cells (Homo sapiens, UniProt P13569, DEL508-508); assay: Ussing chamber assay of CFTR-mediated short-circuit currents (potentiator activity); format: cell-based; conditions: 18-24 hours at 37° C. with 10 μM Compound VII, 20% human serum, CFTR-mediated ISC
T1 construct: human bronchial epithelial (HBE) cells derived from CF subjects; endogenous in cells; host or cells: primary human bronchial epithelial cells from CF subjects (F508del/MF-HBE)
T1 sequence (P13569 with tags, fused parts or gaps DEL508-508): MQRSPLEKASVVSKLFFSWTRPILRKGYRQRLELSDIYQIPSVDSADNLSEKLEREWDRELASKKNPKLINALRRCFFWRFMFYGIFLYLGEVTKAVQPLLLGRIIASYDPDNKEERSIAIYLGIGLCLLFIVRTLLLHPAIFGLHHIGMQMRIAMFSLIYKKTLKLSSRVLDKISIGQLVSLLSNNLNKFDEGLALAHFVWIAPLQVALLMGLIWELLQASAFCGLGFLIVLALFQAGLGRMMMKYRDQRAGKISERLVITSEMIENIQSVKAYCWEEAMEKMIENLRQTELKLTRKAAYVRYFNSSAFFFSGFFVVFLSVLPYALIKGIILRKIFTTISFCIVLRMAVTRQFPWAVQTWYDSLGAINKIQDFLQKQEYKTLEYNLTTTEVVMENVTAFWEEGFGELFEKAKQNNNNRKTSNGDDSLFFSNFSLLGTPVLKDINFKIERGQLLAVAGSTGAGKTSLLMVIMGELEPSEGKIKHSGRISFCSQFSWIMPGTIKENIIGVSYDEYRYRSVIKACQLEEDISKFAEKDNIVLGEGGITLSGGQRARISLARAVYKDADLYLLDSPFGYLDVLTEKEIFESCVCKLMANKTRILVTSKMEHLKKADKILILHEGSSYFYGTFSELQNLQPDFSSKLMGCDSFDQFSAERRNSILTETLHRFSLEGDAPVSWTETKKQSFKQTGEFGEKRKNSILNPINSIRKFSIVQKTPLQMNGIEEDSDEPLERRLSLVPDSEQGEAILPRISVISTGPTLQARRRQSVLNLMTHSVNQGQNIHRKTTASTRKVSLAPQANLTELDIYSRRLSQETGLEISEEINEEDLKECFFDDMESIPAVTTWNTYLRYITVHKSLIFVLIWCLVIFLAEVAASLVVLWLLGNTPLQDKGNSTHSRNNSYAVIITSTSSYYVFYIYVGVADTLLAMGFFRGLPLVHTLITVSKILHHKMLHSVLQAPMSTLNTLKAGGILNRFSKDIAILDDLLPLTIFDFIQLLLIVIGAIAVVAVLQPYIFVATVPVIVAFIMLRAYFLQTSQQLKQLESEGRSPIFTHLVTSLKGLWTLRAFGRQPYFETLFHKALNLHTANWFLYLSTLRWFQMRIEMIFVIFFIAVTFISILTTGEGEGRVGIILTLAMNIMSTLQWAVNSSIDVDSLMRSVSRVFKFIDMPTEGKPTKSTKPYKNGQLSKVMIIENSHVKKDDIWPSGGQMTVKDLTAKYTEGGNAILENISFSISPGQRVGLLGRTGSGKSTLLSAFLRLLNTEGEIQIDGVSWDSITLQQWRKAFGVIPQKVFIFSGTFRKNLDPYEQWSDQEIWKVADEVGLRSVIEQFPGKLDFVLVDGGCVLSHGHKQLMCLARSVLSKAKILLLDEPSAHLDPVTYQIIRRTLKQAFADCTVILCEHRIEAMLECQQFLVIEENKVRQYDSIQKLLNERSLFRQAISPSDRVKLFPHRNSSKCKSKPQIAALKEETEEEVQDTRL
Method: Ussing chamber experiments were performed using human bronchial epithelial (HBE) cells derived from CF subjects heterozygous for F508del and a minimal function CFTR mutation (F508del/MF-HBE) and cultured as previously described (Neuberger T, Burton B, Clark H, Van Goor F Methods Mol Biol 2011:741:39-54). After four days the apical media was removed, and the cells were grown at an air liquid interface for >14 days prior to use.
To isolate the CFTR-mediated short-circuit (ISC) current, F508del/MF-HBE grown on Costar® Snapwell™ cell culture inserts were mounted in an Ussing chamber and the transepithelial ISC was measured under voltage-clamp recording conditions (Vhold=0 mV) at 37° C. The basolateral solution contained (in mM) 145 NaCl, 0.83 K2HPO4, 3.3 KH2PO4, 1.2 MgCl2, 1.2 CaCl2), 10 Glucose, 10 HEPES (pH adjusted to 7.4 with NaOH) and the apical solution contained (in mM) 145 NaGluconate, 1.2 MgCl2, 1.2 CaCl2), 10 glucose, 10 HEPES (pH adjusted to 7.4 with NaOH) and 30 μM amiloride to block the epithelial sodium channel. […] The CFTR-mediated ISC (uA/cm2) for each condition was determined from the peak forskolin response to the steady-state current following inhibition.
The activity of the CFTR potentiator compounds on the CFTR-mediated ISC was determined in Ussing chamber studies as described above. […]

[2] = First-in-human (FIH) clinical study of safety, tolerability and PK in healthy subjects; format: in vivo; conditions: single doses 3 mg to 1500 mg (Part A), total daily doses 10 mg to 300 mg for ten days (Part B), Part C, suspension, all cohorts
Method: In a first-in-human (FIH) clinical study of Compound I, the safety, tolerability, and pharmacokinetics (PK) of Compound I in healthy subjects was evaluated. Assessments of the relative bioavailability (BA) of Suspension 2 of Compound I compared to Suspension 1 of Compound I, food effect, and drug drug interactions (DDIs) between Compound I and itraconazole and midazolam were conducted.
This first-in-human (FIH) study of Compound I included three parts (Parts A, B, and C).
Approximately 154 healthy adult subjects were planned to be enrolled in planned cohorts. Approximately 76 subjects were planned to be enrolled in Part A (excluding optional Part A Cohorts), approximately 48 subjects in Part B (excluding optional Part B Cohorts), and approximately 30 subjects in Part C. There was no pre-specified ratio of males to females, but reasonable effort was made to enroll females of non-childbearing potential in all dosing cohorts.
Six dose escalation cohorts were planned for Part A, and five dose escalation cohorts were planned for Part B. Additional cohorts (A7 and A8) in Part A were enrolled based on data from previous cohorts. […]
Food effect was evaluated in an open label, single sequence Cohort A9 to evaluate the effect of food on the PK of Compound I based on emerging PK data during dose escalation. […]

EC50 [1]: < 500 nM
SMILES: CC1(C)CCCCC[C@](O)(C(F)(F)F)C2=NN=C(O2)c2nc(c(C(F)(F)F)cc2N)N1 [Compound I, (6R)-17-amino-12,12-dimethyl-6,15-bis(trifluoromethyl)-19-oxa-3,4,13,18-tetrazatricyclo[12.3.1.12,5]nonadeca-1 (18),2,4,14,16-pentaen-6-ol]
safety and tolerability [2]: generally safe and well-tolerated
